Measurements as given in ChEMBL document CHEMBL4316582, “Nitro-Group-Containing Drugs” (J Med Chem, 2019).
Values after ≈ are worked out from the molar mass of the structure shown.

Experiments:
NCI-H460 [1] = experiment: Antiproliferative activity against human NCI-H460 cells in presence of O2; assay type: functional, cell-based
NCI-H460 [2] = experiment: Antiproliferative activity against human NCI-H460 cells in presence of N2; assay type: functional, cell-based
NCI-H460 [3] = experiment: Ratio of IC50 for antiproliferative activity against human NCI-H460 cells in presence of O2 to antiproliferative activity against human NCI-H460 cells in presence of N2; assay type: functional
[4] = test system: Mycobacterium tuberculosis; experiment: Antitubercular activity against drug-sensitive Mycobacterium tuberculosis; assay type: functional
[5] = test system: Mycobacterium tuberculosis; experiment: Antitubercular activity against Mycobacterium tuberculosis; assay type: functional
Hep 3B2 [6] = experiment: Cytotoxicity against human Hep3B cells after 24 hrs under hypoxic condition by MTS assay; assay type: functional, cell-based
Hep 3B2 [7] = experiment: Cytotoxicity against human Hep3B cells after 24 hrs by MTS assay; assay type: functional, cell-based
NCI-H460 [8] = experiment: Cytotoxicity against human NCI-H460 cells assessed as reduction in cell viability after 2 hrs under normoxic conditions by Alamar blue assay; assay type: functional, cell-based; settings: NCI-H460, 2 h
NCI-H460 [9] = experiment: Cytotoxicity against human NCI-H460 cells assessed as reduction in cell viability after 2 hrs under hypoxic conditions by Alamar blue assay; assay type: functional, cell-based; settings: NCI-H460, 2 h
SK-OV-3 = experiment: Cytotoxicity against human SKOV3 cells; assay type: functional, cell-based
[10] = biological target: Epidermal growth factor receptor (Homo sapiens, UniProt P00533); experiment: Inhibition of erbB1 (unknown origin) using FRET-capable peptide substrate by FRET assay
NCI-H460 [11] = experiment: Antiproliferative activity against human NCI-H460 cells; assay type: functional, cell-based
HT-29 [12] = experiment: Cytotoxicity against human HT-29 cells assessed as reduction in cell viability after 2 hrs by Alamar blue assay; assay type: functional, cell-based; settings: HT-29, 2 h
NCI-H460 [13] = experiment: Cytotoxicity against human NCI-H460 cells assessed as reduction in cell viability after 2 hrs by Alamar blue assay; assay type: functional, cell-based; settings: NCI-H460, 2 h
[14] = biological target: T1, Oxygen-insensitive NAD(P)H nitroreductase (Escherichia coli K-12, UniProt P38489); experiment: Susbtrate activity at Escherichia coli nitroreductase assessed as half life; assay type: ADME
T1 sequence (P38489 whole entry): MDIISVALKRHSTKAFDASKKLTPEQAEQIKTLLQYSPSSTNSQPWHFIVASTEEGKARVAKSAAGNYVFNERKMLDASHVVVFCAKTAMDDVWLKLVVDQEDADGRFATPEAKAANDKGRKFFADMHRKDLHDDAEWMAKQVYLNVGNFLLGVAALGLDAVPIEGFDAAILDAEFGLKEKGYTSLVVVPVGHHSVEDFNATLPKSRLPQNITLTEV

[15] = biological target: T1, Oxygen-insensitive NAD(P)H nitroreductase; experiment: Inhibition of Escherichia coli nitroreductase expressed in human HCT116 cells; assay type: cell-based
Quinone oxidoreductase = biological target: T2, Quinone oxidoreductase (Homo sapiens, UniProt Q08257); experiment: Inhibition of human Quinone oxidoreductase
T2 sequence (Q08257 whole entry): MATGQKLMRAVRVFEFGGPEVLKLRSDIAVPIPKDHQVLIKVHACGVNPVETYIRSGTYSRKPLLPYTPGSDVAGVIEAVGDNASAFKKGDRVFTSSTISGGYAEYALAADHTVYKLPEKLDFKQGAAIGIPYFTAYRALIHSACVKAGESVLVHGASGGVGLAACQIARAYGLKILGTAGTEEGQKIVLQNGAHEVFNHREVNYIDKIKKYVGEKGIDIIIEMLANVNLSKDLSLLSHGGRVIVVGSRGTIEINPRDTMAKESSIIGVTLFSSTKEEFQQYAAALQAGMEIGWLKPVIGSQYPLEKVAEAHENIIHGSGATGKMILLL

[16] = Inhibition of Escherichia coli nitroreductase F179 mutant
[17] = Cytotoxicity against human MiaPaCa cells assessed as reduction in cell viability after 2 hrs by Alamar blue assay; assay type: functional, cell-based; settings: MIA PaCa-2, 2 h
HT-29 [18] = experiment: Cytotoxicity against human HT-29 cells; assay type: functional, cell-based

Sequence of Epidermal growth factor receptor (P00533 whole entry): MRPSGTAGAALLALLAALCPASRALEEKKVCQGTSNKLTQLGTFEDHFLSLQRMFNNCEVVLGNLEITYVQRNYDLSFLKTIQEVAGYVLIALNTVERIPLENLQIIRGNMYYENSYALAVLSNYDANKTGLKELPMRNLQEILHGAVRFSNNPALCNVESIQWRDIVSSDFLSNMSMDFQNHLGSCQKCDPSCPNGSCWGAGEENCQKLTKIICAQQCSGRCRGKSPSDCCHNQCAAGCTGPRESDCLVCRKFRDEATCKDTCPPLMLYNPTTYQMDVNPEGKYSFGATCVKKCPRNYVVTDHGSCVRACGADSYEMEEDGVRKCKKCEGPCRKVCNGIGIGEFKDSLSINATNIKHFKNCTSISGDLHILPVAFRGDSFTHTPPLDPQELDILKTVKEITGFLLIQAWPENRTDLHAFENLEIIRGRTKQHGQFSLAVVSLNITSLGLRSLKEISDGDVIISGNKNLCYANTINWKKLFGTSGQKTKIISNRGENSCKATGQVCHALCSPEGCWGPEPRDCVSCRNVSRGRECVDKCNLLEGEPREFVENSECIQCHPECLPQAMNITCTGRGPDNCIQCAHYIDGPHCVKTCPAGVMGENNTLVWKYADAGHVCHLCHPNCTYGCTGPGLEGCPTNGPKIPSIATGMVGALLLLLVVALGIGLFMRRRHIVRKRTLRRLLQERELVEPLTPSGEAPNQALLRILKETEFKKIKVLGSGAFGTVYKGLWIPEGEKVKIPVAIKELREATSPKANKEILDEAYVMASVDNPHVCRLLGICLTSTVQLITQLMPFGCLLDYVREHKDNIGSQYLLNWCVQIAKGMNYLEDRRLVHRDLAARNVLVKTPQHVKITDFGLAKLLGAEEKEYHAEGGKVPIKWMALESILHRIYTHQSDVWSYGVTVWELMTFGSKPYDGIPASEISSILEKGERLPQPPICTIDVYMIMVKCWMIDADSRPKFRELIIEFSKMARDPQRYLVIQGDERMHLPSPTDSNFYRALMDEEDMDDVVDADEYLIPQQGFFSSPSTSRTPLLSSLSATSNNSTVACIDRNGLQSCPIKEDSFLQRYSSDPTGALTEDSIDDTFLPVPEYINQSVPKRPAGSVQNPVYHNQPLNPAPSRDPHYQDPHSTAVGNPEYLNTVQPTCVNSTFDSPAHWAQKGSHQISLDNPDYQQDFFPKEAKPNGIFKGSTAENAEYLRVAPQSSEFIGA

Q: With NC(=O)c1ccc([N+](=O)[O-])c(N2CC2)n1 as the molecule, how does the IC50 (NCI-H460 [1]) read?
A: Its IC50 is 61 µM.

Q: What about the IC50 (NCI-H460 [2]) of the same molecule?
A: Its IC50 is 1.7 µM.

Q: And the “Ratio IC50” value (NCI-H460 [3])?
A: The value was 35.9.

Q: For O=[N+]([O-])C1CN2C[C@H](OCc3ccc(OC(F)(F)F)cc3)COC2=N1 (stereo partly specified), which MIC [4] is on record?
A: The MIC was 0.039 to 0.531 µg/mL (≈ 0.108 to 1.47 µM).

Q: What about the MIC [5] of the same molecule?
A: Its MIC is < 2.8 µM.

Q: With NC(=O)c1cc([N+](=O)[O-])cnc1N1CC1 as the molecule, how does the IC50 (NCI-H460 [1]) read?
A: The IC50 was 198 µM.

Q: And the IC50 (NCI-H460 [2])?
A: Its IC50 is 9.3 µM.

Q: And the “Ratio IC50” value (NCI-H460 [3])?
A: The value was 21.3.

Q: Which MIC [4] does the source give for FC(F)(F)Oc1ccc(CO[C@@H]2COc3nccn3C2)cc1 here?
A: Its MIC is 0.039 to 0.531 µg/mL (≈ 0.124 to 1.69 µM).

Q: What about the MIC [5] of the same molecule?
A: The MIC was < 2.8 µM.

Q: With NC(=O)c1ccnc(N2CC2)c1[N+](=O)[O-] as the molecule, how does the IC50 (NCI-H460 [1]) read?
A: Its IC50 is 142 µM.

Q: What about the IC50 (NCI-H460 [2]) of the same molecule?
A: The IC50 was 2.7 µM.

Q: What about the “Ratio IC50” value (NCI-H460 [3]) of the same molecule?
A: Its value is 52.5.

Q: Which results are given for COc1ccc(C[C@@H](C)[C@@H](C)Cc2ccc(OC)c(OCCOCCOCCOCCn3ccnc3[N+](=O)[O-])c2)cc1OC?
A: IC50 (Hep 3B2 [6]): 53.2 µM; IC50 (Hep 3B2 [7]): 12.6 µM

Q: Which results are given for [O-]/[N+](O)=C1/CN2C[C@H](OCc3ccc(OC(F)(F)F)cc3)COC2=N1?
A: MIC [4]: 0.039 to 0.531 µg/mL (≈ 0.108 to 1.47 µM); MIC [5]: < 2.8 µM

Q: With COc1cccc2c1C(=O)c1c(O)c3c(c(O)c1C2=O)C[C@@](O)(C(C)=O)C[C@@H]3O[C@H]1C[C@H](N(COCCn2ccnc2[N+](=O)[O-])COCCn2ccnc2[N+](=O)[O-])[C@H](O)[C@H](C)O1 as the molecule, how does the IC50 (NCI-H460 [8]) read?
A: Its IC50 is 20 µM.

Q: What about the IC50 (NCI-H460 [9]) of the same molecule?
A: Its IC50 is 0.05 µM.

Q: With COc1cccc2c1C(=O)c1c(O)c3c(c(O)c1C2=O)C[C@@](O)(C(C)=O)C[C@@H]3O[C@H]1C[C@H](NCCCCn2ccnc2[N+](=O)[O-])[C@H](O)[C@H](C)O1 as the molecule, how does the IC50 (NCI-H460 [8]) read?
A: Its IC50 is 5.7 µM.

Q: What about the IC50 (NCI-H460 [9]) of the same molecule?
A: Its IC50 is 0.004 µM.

Q: For CC(OP(N)(=O)N(CCCl)CCCl)c1ccc([N+](=O)[O-])cc1 (stereo unspecified), which IC50 (SK-OV-3) is on record?
A: Its IC50 is 1.8 µM.

Q: Which IC50 (SK-OV-3) does the source give for COc1cc([N+](=O)[O-])ccc1COP(N)(=O)N(CCCl)CCCl (stereo unspecified) here?
A: The IC50 was 1.8 µM.

Q: For COc1cc(COP(N)(=O)N(CCCl)CCCl)ccc1[N+](=O)[O-] (stereo unspecified), which IC50 (SK-OV-3) is on record?
A: Its IC50 is 3.1 µM.

Q: Which IC50 [10] does the source give for Cn1c(C[N+](C)(C)C/C=C/C(=O)Nc2ccc3ncnc(Nc4cccc(Br)c4)c3c2)ccc1[N+](=O)[O-] here?
A: Its IC50 is 0.00022 to 0.00056 µM.

Q: Which IC50 [10] does the source give for Cn1cc([N+](=O)[O-])nc1C[N+](C)(C)C/C=C/C(=O)Nc1ccc2ncnc(Nc3cccc(Br)c3)c2c1 here?
A: The IC50 was 0.00022 to 0.00056 µM.

Q: For Cn1c(COP(=O)(N(CCCl)CCCl)N(CCCl)CCCl)ccc1[N+](=O)[O-], which IC50 (NCI-H460 [1]) is on record?
A: Its IC50 is 0.85 µM.

Q: What about the IC50 (NCI-H460 [2]) of the same molecule?
A: Its IC50 is 0.007 µM.

Q: What about the IC50 (NCI-H460 [11]) of the same molecule?
A: Its IC50 is > 1 µM.

Q: With CC#Cc1c(OC)ccc2c(C(=O)c3cc(OC)c(OC)c(OC)c3)nn(C[N+](C)(C)Cc3c(CCC)nc([N+](=O)[O-])n3C)c12 as the molecule, how does the IC50 (HT-29 [12]) read?
A: Its IC50 is 0.018 µM.

Q: What about the IC50 (NCI-H460 [13]) of the same molecule?
A: Its IC50 is 0.04 µM.

Q: What does the source list for O=[N+]([O-])c1ccc2c(c1)OP(=O)(N(CCCl)CCCl)NC2 (stereo unspecified)?
A: half-life [14]: 11 min; IC50 [15]: 48 µM; IC50 (Quinone oxidoreductase): 48 µM; IC50 [16]: 61 µM

Q: What does the source list for CC#Cc1c(OC)ccc2c(C(=O)c3cc(OC)c(OC)c(OC)c3)nn(C[N+](C)(C)Cc3c(-c4ccc(Br)o4)nc([N+](=O)[O-])n3C)c12?
A: IC50 (HT-29 [12]): 0.017 µM; IC50 (NCI-H460 [13]): 0.018 µM

Q: Which IC50 (SK-OV-3) does the source give for NP(=O)(OCc1ccc([N+](=O)[O-])cc1)N(CCCl)CCCl (stereo unspecified) here?
A: The IC50 was 1.1 µM.

Q: For NC(=O)c1cnc(N2CC2)c([N+](=O)[O-])c1, which IC50 (NCI-H460 [1]) is on record?
A: The IC50 was 143 µM.

Q: What about the IC50 (NCI-H460 [2]) of the same molecule?
A: The IC50 was 2.3 µM.

Q: What about the “Ratio IC50” value (NCI-H460 [3]) of the same molecule?
A: The value was 62.

Q: With C=Cc1nc([N+](=O)[O-])n(C)c1C[N+](C)(C)Cn1nc(C(=O)c2cc(OC)c(OC)c(OC)c2)c2ccc(OC)c(C#CC)c21 as the molecule, how does the IC50 (HT-29 [12]) read?
A: The IC50 was 0.007 µM.

Q: What about the IC50 (NCI-H460 [13]) of the same molecule?
A: The IC50 was 0.048 µM.

Q: And the IC50 [17]?
A: The IC50 was 0.02 µM.

Q: Which IC50 (SK-OV-3) does the source give for CC(=O)c1ccc2c([N+](=O)[O-])cc3c(c2c1)C(CCl)CN3C(=O)c1cc2cc(OCCN(C)C)ccc2[nH]1 (stereo unspecified) here?
A: The IC50 was 0.21 µM.

Q: What about the IC50 (HT-29 [18]) of the same molecule?
A: Its IC50 is 0.15 µM.

Q: With C[N+](C)(C/C=C/C(=O)Nc1ccc2ncnc(Nc3cccc(Br)c3)c2c1)Cc1ccc([N+](=O)[O-])cc1 as the molecule, how does the IC50 [10] read?
A: The IC50 was 0.00022 to 0.00056 µM.

Q: With COC(=O)c1ccc2c3c(cc([N+](=O)[O-])c2c1)N(C(=O)c1cc2cc(OCCN(C)C)ccc2[nH]1)CC3CCl (stereo unspecified) as the molecule, how does the IC50 (SK-OV-3) read?
A: Its IC50 is 0.44 µM.

Q: What about the IC50 (HT-29 [18]) of the same molecule?
A: Its IC50 is 0.32 µM.

Q: With COc1ccc(C[C@@H](C)[C@@H](C)Cc2ccc(OCCOCCOCCOCCn3ccnc3[N+](=O)[O-])c(OC)c2)cc1OC as the molecule, how does the IC50 (Hep 3B2 [6]) read?
A: Its IC50 is 13.4 µM.

Q: And the IC50 (Hep 3B2 [7])?
A: The IC50 was 13.4 µM.
